Results as given in patent US9266905B2, “Color material and method for producing the same” (DAI NIPPON PRINTING CO., LTD., priority 2011, dated 2016).
Blank lines part the entries; values can stand above or below the compound they belong to.

Experiments:
[1] = Measurement of decomposition point (TG-DTA); type: physicochemical; details: TG-DTA up to 800° C. at 10° C./minute, extrapolation temperature of the peak of the TG curve
Method: About 5 mg of each of color materials A to S of Examples 1 to 9 and Comparative examples 1 to 10, was put in a quartz pan, and measured by means of a differential thermogravimetric analyzer (TG-DTA) (product name; TG8120; manufactured by: Rigaku Corporation) up to 800° C. at a heating rate of 10° C./minute, placing alumina on the quartz pan as a reference. The extrapolation temperature of the peak of the thus-obtained TG curve was used as the decomposition point. The temperature of the decomposition point can be used as an indicator of heat resistance.

[2] = Measurement of thermal stability (weight reduction rate, TG-DTA); type: physicochemical; details: heated to 230° C. at 10° C./minute, kept 60 minutes at 230° C.
Method: About 5 mg of each of color materials A to S of Examples 1 to 9 and Comparative examples 1 to 10, was put in a quartz pan and heated up to 230° C. at a heating rate of 10° C./minute, placing alumina on the quartz pan as a reference, by means of a differential thermogravimetric analyzer (TG-DTA) (product name; TG8120; manufactured by: Rigaku Corporation). After reaching 230° C., the temperature was kept for 60 minutes at 230° C. Then, a weight reduction rate was measured. The weight reduction rate was calculated by the following formula and can be used as an indicator of heat resistance. Weight reduction rate=(weight before heating−weight after heating)/weight before heating×100(%)

Structure (SMILES): CCN(CC)c1ccc(C(=C2C=CC(=[N+](CC)CC)C=C2)c2ccc(NCc3ccc(CNc4ccc(C(=C5C=CC(=[N+](CC)CC)C=C5)c5ccc(N(CC)CC)cc5)c5ccccc45)cc3)c3ccccc23)cc1 [Color material A]
Decomposition point ([1]; listed as A): 253 °C
Weight reduction rate ([2]; listed as A): −19.1%

Structure (SMILES): CCNc1ccc(C(=C2C=CC(=[N+](CC)CC)C=C2)c2ccc(N(CC)CC)cc2)c2ccccc12 [Color material R]
Decomposition point ([1]; listed as R): 259 °C
Weight reduction rate ([2]; listed as R): −30.5%

Structure (SMILES): CCN(CC)c1ccc(C(=C2C=CC(=[N+](CC)CC)C=C2)c2ccc(NCc3ccc(CNc4ccc(C(=C5C=CC(=[N+](CC)CC)C=C5)c5ccc(N(CC)CC)cc5)c5ccccc45)cc3)c3ccccc23)cc1 [Color material J]
Decomposition point ([1]; listed as J): 248 °C
Weight reduction rate ([2]; listed as J): −35.1%

Structure (SMILES): CCN(CC)c1ccc(C(=C2C=CC(=[N+](CC)CC)C=C2)c2ccc(NCc3ccc(CNc4ccc(C(=C5C=CC(=[N+](CC)CC)C=C5)c5ccc(N(CC)CC)cc5)c5ccccc45)cc3)c3ccccc23)cc1 [Color material B]
Decomposition point ([1]; listed as B): 258 °C
Weight reduction rate ([2]; listed as B): −10.7%

Results, then the compound that gave them:

Decomposition point ([1]; listed as Q): 258 °C
Weight reduction rate ([2]; listed as Q): −30.1%
Structure (SMILES): CCNc1ccc(C(=C2C=CC(=[N+](CC)CC)C=C2)c2ccc(N(CC)CC)cc2)c2ccccc12 [Color material Q]

Decomposition point ([1]; listed as N): 251 °C
Weight reduction rate ([2]; listed as N): −38.3%
Structure (SMILES): CCNc1ccc(C(=C2C=CC(=[N+](CC)CC)C=C2)c2ccc(N(CC)CC)cc2)c2ccccc12 [Color material N]

Decomposition point ([1]; listed as L): 241 °C
Weight reduction rate ([2]; listed as L): −31.8%
Structure (SMILES): CCNc1ccc(C(=C2C=CC(=[N+](CC)CC)C=C2)c2ccc(N(CC)CC)cc2)c2ccccc12 [Color material L]

Decomposition point ([1]; listed as K): 237 °C
Weight reduction rate ([2]; listed as K): −32.8%
Structure (SMILES): CCNc1ccc(C(=C2C=CC(=[N+](CC)CC)C=C2)c2ccc(N(CC)CC)cc2)c2ccccc12 [Color material K]
